Reference: PubChem BioAssay (NCI)
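Exposure lasted 48 hours, with cells grown in 96-well plates and compounds tested at five concentrations. Here, GI50 denotes the concentration required for 50% inhibition of growth. TGI denotes the concentration required for complete inhibition of growth.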

Experiments:
Test in all cases: NCI anticancer screen, dose series, 48 h
[1] = test system: T-47D breast
[2] = test system: SK-MEL-28 melanoma
[3] = test system: MALME-3M melanoma
[4] = test system: UACC-257 melanoma
[5] = test system: OVCAR-8 ovarian
[6] = test system: DLD-1 colon
[7] = test system: LXFL 529 NSCLC
[8] = test system: KM20L2 colon
[9] = test system: SNB-78 CNS

Row | Compound | GI50 [1] | TGI [1] | GI50 [2] | TGI [2] | GI50 [3] | TGI [3] | GI50 [4] | TGI [4] | GI50 [5] | TGI [5] | TGI [6] | TGI [7] | TGI [8] | TGI [9]
1 | COc1ccc(/C=C2\CC(C)CC3C2=NN(c2ccccc2)C3c2ccc(OC)c(OC)c2)cc1OC (stereo not drawn) | 4.48 µM | > 100 µM | 4.87 µM | 18.3 µM | 8.64 µM | > 100 µM | 7.94 µM | > 100 µM | 6.78 µM | > 100 µM |  |  |  | 
2 | CC1CC(C)C2=NOS3=C2C1=NO3 (stereo not drawn) |  | > 100 µM |  | > 100 µM |  | > 100 µM |  | > 100 µM |  | > 100 µM |  |  |  | 
3 | COC(=O)C1=C(C(=O)OC)C2OC1c1cc3ccccc3cc12 |  | 7.49 µM |  | 4.09 µM |  | 6 µM |  | 17.5 µM |  | 13.6 µM |  |  |  | 
4 | C[C@@H]1CC[C@@H]2[C@@H](C)C[C@H]3[C@@H]4C(C)(C)OC(=O)[C@]4(C)C(=O)[C@@]23C1=O | 65.3 µM | > 100 µM |  | > 100 µM |  | > 100 µM |  | > 100 µM |  | > 100 µM |  |  |  | 
5 | CCCCCCN(C)Cc1ccc(OCCOc2ccc(CN(C)CCCCCC)cc2)cc1 | 1.32 µM | 3.26 µM | 1.45 µM | 2.88 µM | 1.13 µM | 2.87 µM | 0.448 µM | 1.84 µM | 1.41 µM | 3.16 µM |  |  |  | 
6 | O=S(=O)(Nc1ccc2ccccc2c1)c1ccc(-c2cnc(C3CC3)o2)cc1 | 1.01 µM | 58.3 µM | 4.8 µM | 20.8 µM | 0.999 µM | 24 µM | 10.4 µM | 31.5 µM | 2.88 µM | 67.1 µM |  |  |  | 
7 | COC(=O)C1=C(O)[C@H](C(=O)OC)[C@]2(O)[C@@H](C(=O)OC)[C@H]1C[C@@H](c1ccc(OC(=O)/C=C/c3ccco3)cc1)[C@@H]2C(=O)OC | > 100 µM | > 100 µM | 29.1 µM | > 100 µM |  |  | 65.5 µM | > 100 µM | 42.4 µM | > 100 µM |  |  |  | 
8 | NNC(=S)Nc1cccc(Cl)c1 |  | > 100 µM |  | > 100 µM |  | > 100 µM |  | > 100 µM |  | > 100 µM |  |  |  | 
9 | O=C1[C@H](Cl)[C@H]2c3cc4ccccc4nc3Oc3ccccc3N12 |  |  |  | > 100 µM |  | > 100 µM |  | > 100 µM |  | > 100 µM | > 100 µM | > 100 µM | > 100 µM | 
10 | COc1ccc2c(c1)N(CCO)C1=C(C(=O)OC1)C2c1ccccc1 (stereo not drawn) |  |  | 2.98 µM | > 50 µM |  |  | 1.87 µM | > 50 µM | 2.03 µM | > 50 µM |  |  |  | 
11 | Cc1ccc(NC(=O)CC/C(CC(=O)C(C)(C)C)=N\Nc2ccc([N+](=O)[O-])cc2[N+](=O)[O-])cc1C |  |  |  | > 100 µM |  |  |  | > 100 µM |  | > 100 µM | > 100 µM | > 100 µM | > 100 µM | > 100 µM
12 | O=C(Cn1c(C(=O)c2ccccc2)nc2ccccc21)c1ccc(F)cc1 | 3.38 µM | > 100 µM | 7.07 µM | > 100 µM | 11.1 µM | > 100 µM | 74.3 µM | > 100 µM | 37.4 µM | > 100 µM |  |  |  | 
13 | Nc1ccc2c(c1)Oc1c(F)c(F)cc3c(=O)c(C(=O)O)cn-2c13 |  |  |  | > 100 µM |  | > 100 µM |  |  |  | > 100 µM | > 100 µM | > 100 µM | > 100 µM | 
14 | Cc1cn2c(/C=C3/C(=O)Nc4ccc(F)cc43)c(C)nc2s1 | 10.2 µM | > 50 µM | 4.11 µM | > 50 µM | 7.26 µM | > 50 µM | 36.2 µM | > 50 µM | 10.4 µM | > 50 µM |  |  |  | 
15 | O=C(Nc1nc(-c2ccc(Cl)cc2)nc2c1sc(=S)n2-c1ccccc1)C(F)(F)F | 2.05 µM | 5.05 µM | 6.01 µM | > 100 µM | 2.89 µM | 7.08 µM | 10.7 µM | 60 µM | 4.21 µM | 21.1 µM |  |  |  | 
16 | COc1ccc(CNc2cnc3cc(N)cc(N)c3n2)cc1 | 73.8 µM | > 100 µM | 58 µM | > 100 µM |  |  | 21.4 µM | 39.7 µM | 19.7 µM | 39.8 µM |  |  |  | 
17 | CC[C@]12C=CCN3CC[C@@]4(c5ccc(OC)cc5N(C)[C@H]4[C@@](O)(C(=O)OC)[C@@H]1OC(=O)CCC(=O)N[C@H](Cc1c[nH]c4ccccc14)C(=O)OC)[C@@H]32 | 11 µM | 30.3 µM | 2.21 µM | 5.44 µM | 2.6 µM | 8.09 µM | 6 µM | 23.1 µM | 7.78 µM | 35 µM |  |  |  | 
18 | Cc1ccc(/C=C(\C#N)c2ccccc2)cc1 |  |  |  | > 100 µM |  |  |  | > 100 µM |  | > 100 µM | > 100 µM | > 100 µM | > 100 µM | > 100 µM
19 | O=C(NN1C(=O)CSC12CCCC2)C(O)c1ccccc1 (stereo not drawn) | > 100 µM | > 100 µM | > 100 µM | > 100 µM | > 100 µM | > 100 µM | > 100 µM | > 100 µM | > 100 µM | > 100 µM |  |  |  | 
20 | C=C1C(=O)OC2CC3(C)CCCC(C)C3=CC12 (stereo not drawn) |  | 11 µM |  | 12.2 µM |  | 16.7 µM |  | 18.1 µM |  | 37.3 µM |  |  |  | 
21 | CC(C)CCC(=O)[C@@H](C)[C@H]1[C@@H](OC2OCC(O)C(O)C2NS(C)(=O)=O)C[C@H]2[C@@H]3CC=C4C[C@@H](O)CC[C@]4(C)[C@H]3CC[C@]12C (stereo partly drawn) | 3.93 µM | 23 µM | 0.53 µM | 1.53 µM | 0.91 µM | 4.29 µM | 0.922 µM | 2.31 µM | 7.63 µM | 37.2 µM |  |  |  | 
22 | CC1=NN(C(=O)c2ccncc2)C(=O)C1N=Nc1ccc2ccccc2c1 (stereo not drawn) |  | > 100 µM |  | > 100 µM |  | > 100 µM |  | > 100 µM |  | > 100 µM |  |  |  | 
23 | CC(C)(C)c1ccc(O)c(CN(Cc2cc(C(C)(C)C)ccc2O)C2CCCCC2)c1 |  | 45 µM |  | 27.2 µM |  | 30.8 µM |  | 37.4 µM |  | 42 µM |  |  |  | 
24 | O=C(NNC(=S)Nc1ccccc1)c1ccccn1 | 6.55 µM | > 100 µM | 2.8 µM | > 100 µM |  |  | 2.53 µM | 21.2 µM | 2.69 µM | > 100 µM |  |  |  | 
